Experimental data reported in patent US8168632B2, “Bicyclic amide derivatives for the treatment of respiratory disorders” (Cortex Pharmaceuticals, Inc., priority 2007, dated 2012).

Each compound was assayed on AMPA receptor (assay: In vivo electrophysiology (field EPSP in dentate gyrus of anesthetized animals)). Settings: 10 mpk i.p., perforant path stimulation.
Method: The electrophysiological effects of the invention compounds were tested in vivo in anesthetized animals according to the following procedures. Animals are maintained under anesthesia by phenobarbital administered using a Hamilton syringe pump. Stimulating and recording electrodes are inserted into the perforant path and dentate gyrus of the hippocampus, respectively. Once electrodes are implanted, a stable baseline of evoked responses are elicited using single monophasic pulses (100 μs pulse duration) delivered at 3/min to the stimulating electrode. Field EPSPs are monitored until a stable baseline is achieved (about 20-30 min), after which a solution of test compound is injected intraperitoneally and evoked field potentials are recorded. Evoked potentials were recorded for approximately 2 h following drug administration or until the amplitude of the field EPSP returns to baseline. In the latter instance, it is common that an iv administration is also carried out with an appropriate dose of the same test compound. Invention compounds were assayed in the in vivo electrophysiology assay described above and data for representative test compounds is shown in the Table.
The electrophysiological effects of invention compounds were tested in vivo in anesthetized animals according to the following procedures.
Animals are maintained under anesthesia by phenobarbital administered using a Hamilton syringe pump. Stimulating and recording electrodes are inserted into the perforant path and dentate gyrus of the hippocampus, respectively. Once electrodes are implanted, a stable baseline of evoked responses are elicited using single monophasic pulses (100 μs pulse duration) delivered at 3/min to the stimulating electrode. Field EPSPs are monitored until a stable baseline is achieved (about 20-30 min), after which a solution of test compound is injected intraperitoneally and evoked field potentials are recorded. Evoked potentials are recorded for approximately 2 h following drug administration or until the amplitude of the field EPSP returns to baseline. […]

Going from `O=C(c1ccc2nonc2c1)N1C2CCC1COC2` [Example 1, [2,1,3]-Benzoxadiazol-5-yl(3-oxa-8-azabicyclo[3.2.1]oct-8-yl)methanone] to `O=C(c1ccc2nonc2c1)N1C2CCCC1COC2` [Example 2, [2,1,3]-Benzoxadiazol-5-yl(3-oxa-9-azabicyclo[3.3.1]non-9-yl)methanone], the “In vivo Electrophysiology: % increase in the amplitude of the field EPSP in the dentate gyrus of rat” value falls from 17% to 16%.

With `O=C(c1ccc2nonc2c1)N1C2COCC1COC2` [Example 3, [2,1,3]-Benzoxadiazol-5-yl(3,7-dioxa-9-azabicyclo[3.3.1]non-9-yl)methanone] the “In vivo Electrophysiology: % increase in the amplitude of the field EPSP in the dentate gyrus of rat” value was 15%.
